This note sets out measurements from patent US20250282802A1, “P[…] AND METHODS” (priority 2020, published 2025).

A word on the MIC: it is the least concentration at which growth counts as inhibited. As a reminder, the Emax is the size of the effect at its maximum, as opposed to the concentration needed. What is called IC50 is the concentration that inhibits the measured activity by half. A low value points to higher potency.

Assay [1] concerns Klebsiella pneumoniae ATCC 27736. Nature of the assay: Antibacterial bioassay (MIC), Klebsiella pneumoniae. It is filed as cell-based. To be noted: CLSI. The protocol:
(§1) Antibacterial bioassays. Susceptibility testing for the ESKAPE pathogens and Salmonella enterica LT2 was performed using a Kirby-Bauer method as outlined by the Clinical and Laboratory Standards Institute (CLSI). For rich media bioassays, Mueller Hinton Broth 2 (MH-2, Sigma-Aldrich, 90922) was used for all strains except 1% BHI was supplemented for Enterococcus faecalis ATCC 19433. For minimal media bioassays, glucose-MOPS minimal medium was used. Briefly, overnight bacterial cultures were sub-cultured and inoculated into 5 mL top agar (0.7% agar) for final concentration of 5×10^5 CFU/mL. Then, 20 μL of a compound 2-fold dilution series (200, 100, 50, 25, 12.5, 6.25 μM in water) was spotted on 6 mm diameter blank paper discs (BD BBL™ 231039). Control discs received 20 μL of 50 mg/mL kanamycin. Plates were incubated at 35° C. for 20-24 hours. […] Sensitivity of the IPTG-inducible phosphonate uptake strain WM6242 to pantaphos was tested using a disk diffusion assay. Plates containing growth medium were overlayed with 5 mL of top agar (0.7% agar) inoculated with 100 μL (OD600=0.8) of the phosphonate-specific E. coli indicator strain (WM6242) with or without addition of 1 mM IPTG. WM6242 is engineered with an IPTG-inducible, non-specific phosphonate uptake system (phnCDE). […]

Assay [2] deals with Pseudomonas aeruginosa PAO1. Nature of the assay: Antibacterial bioassay (MIC), Pseudomonas aeruginosa. The assay is classed as cell-based. To be noted: CLSI. The protocol:
as §1

For assay [3], the system named is Escherichia coli ATCC 25922. Put plainly: Antibacterial bioassay (MIC), Escherichia coli ATCC 25922. It is filed as cell-based. To be noted: CLSI. Here is the method:
as §1

Assay [4] deals with SK-ML-28 (melanoma). Put plainly: Cytotoxicity profiling (Alamar Blue), SK-ML-28. As to conditions: Homo sapiens; SK-ML-28, Alamar Blue, 72-hour treatment. It is filed as cell-based. Here is the method: (§2) FIG. 8. Cytotoxicity of pantaphos across various cancer cell lines. Assays were conducted as described (mBio. 2021 Feb. 2; 12(1):e03402-20), using the Alamar Blue method with 72-hour treatment using Raptinal ([…]) as Dead cell control; n=3. Cell seeding densities: CT26 (colon carcinoma) 2000 c/w; HOS (osteosarcoma) 2500 c/w; ES-2 (ovarian carcinoma), HCT-116 (colorectal carcinoma), A-549 (lung carcinoma), A-172 (glioblastoma), D54 (glioblastoma), U87 (glioblastoma), T98G (glioblastoma), SK-ML-28 (melanoma), MCF-7 (breast cancer), AM38 (glioblastoma) and MDA-MB-231 (breast cancer) 3000 c/w; U118MG (malignant glioma) 4000 c/w; HepG2 (liver cancer) 8000 c/w. c/w=cells per well. […]
(§3) Cell culture cytotoxicity screening. The compounds were evaluated for their ability to kill cancer cell lines in culture, using HOS (osteosarcoma); ES-2 (ovarian cancer); HCT 116 (colon cancer); A549 (lung carcinoma); and A172 (glioma) cells. Human skin fibroblast cells (HFF-1) were also assessed. […] 72 hours post-treatment, cell viability was assessed using the Alamar Blue method (http://www.bio-rad-antibodies.com/measuring-cytotoxicity-proliferation-spectrophotometry-fluorescence-alamarBlue.html). […] Conversion of Alamar Blue was measured with a plate reader (SpectraMax M3; Molecular Devices) by fluorescence (excitation wavelength: 555 nm; emission wavelength: 585 nm; cutoff 570 nm; autogain). […]

The test system of assay [5] is HOS (human osteosarcoma). Put plainly: Cell culture cytotoxicity screening (Alamar Blue), HOS. As to conditions: 72 hours. The assay is classed as cell-based. Here is the method: as §2, §3
For assay [6], the system named is Acinetobacter baumannii ATCC 19606. Nature of the assay: Antibacterial bioassay (MIC), Acinetobacter baumannii. It is filed as cell-based. To be noted: CLSI. Here is the method: as §1
In assay [7] the test system is U118MG (malignant glioma). Nature of the assay: Cytotoxicity profiling (Alamar Blue), U118MG. It is filed as cell-based. To be noted: Homo sapiens, U-118-MG, 72-hour treatment. Here is the method:
as §2, §3
On the technique in general: The colour change of resazurin is a common sign of viable cells or microbes.

The test system of assay [8] is HepG2 (liver cancer). Nature of the assay: Cytotoxicity profiling (Alamar Blue), HepG2. It is filed as cell-based, human. The protocol: FIG. 8. Cytotoxicity of pantaphos across various cancer cell lines. Assays were conducted as described (mBio. 2021 Feb. 2; 12(1):e03402-20), using the Alamar Blue method with 72-hour treatment using Raptinal ([…]) as Dead cell control; n=3. Cell seeding densities: CT26 (colon carcinoma) 2000 c/w; HOS (osteosarcoma) 2500 c/w; ES-2 (ovarian carcinoma), HCT-116 (colorectal carcinoma), A-549 (lung carcinoma), A-172 (glioblastoma), D54 (glioblastoma), U87 (glioblastoma), T98G (glioblastoma), SK-ML-28 (melanoma), MCF-7 (breast cancer), AM38 (glioblastoma) and MDA-MB-231 (breast cancer) 3000 c/w; U118MG (malignant glioma) 4000 c/w; HepG2 (liver cancer) 8000 c/w. c/w=cells per well. IC50 and Emax values shown in Table 6 were extracted from the raw data plotted in FIG. 8.
Cell culture cytotoxicity screening. The compounds were evaluated for their ability to kill cancer cell lines in culture, using HOS (osteosarcoma); ES-2 (ovarian cancer); HCT 116 (colon cancer); A549 (lung carcinoma); and A172 (glioma) cells. Human skin fibroblast cells (HFF-1) were also assessed. Cells were seeded (3000 cells well^−1 for ES-2, HCT 116, A549 and A172; 4000 cells well^−1 for HFF-1 and 2500 cells well^−1 for HOS) in a 96-well plate and allowed to attach overnight. Cells were treated with pantaphos in water. The concentrations of the tested compounds were 5 nM to 100 μM (1% water final; 100 μl well^−1). Raptinal (50 μM) was used as a dead control. On each plate, five technical replicates per compound were performed. 72 hours post-treatment, cell viability was assessed using the Alamar Blue method (http://www.bio-rad-antibodies.com/measuring-cytotoxicity-proliferation-spectrophotometry-fluorescence-alamarBlue.html). […] Conversion of Alamar Blue was measured with a plate reader (SpectraMax M3; Molecular Devices) by fluorescence (excitation wavelength: 555 nm; emission wavelength: 585 nm; cutoff 570 nm; autogain). Percentage death was determined by normalizing to water-treated cells and Raptinal-treated cells. […]

The test system of assay [9] is Enterococcus faecalis ATCC 19433. Put plainly: Antibacterial bioassay (MIC), Enterococcus faecalis. To be noted: ATCC19433, Mueller-Hinton 2 medium, CLSI, read-out: MIC, Rich medium. It is filed as cell-based. The protocol:
as §1

Read-outs that look alike come from different tables or passages of the source.

On to `O=C(O)/C=C(\C(=O)O)C(O)P(=O)(O)O` (stereo not shown) [pantaphos, 2-(hydroxy(phosphono)methyl)maleate], for which the MIC in [1] (ATCC27736, Mueller-Hinton 2 medium, read-out: MIC, Rich medium) is > 200 µM; in assay [1] (ATCC27736, glucose-MOPS minimal medium, read-out: MIC, Minimal medium) it was > 200 µM; in assay [2] (Mueller-Hinton 2 medium, read-out: MIC, Rich medium) it was > 200 µM; in assay [2] (glucose-MOPS minimal medium, read-out: MIC, Minimal medium) it was > 200 µM; in assay [3] (ATCC25922, Mueller-Hinton 2 medium, read-out: MIC, Rich medium), > 200 µM; in assay [3] (ATCC25922, glucose-MOPS minimal medium, read-out: MIC, Minimal medium), > 200 µM. Moreover, the MIC was > 200 µM in [6] (ATCC19606, Mueller-Hinton 2 medium, read-out: MIC, Rich medium); > 200 µM in assay [6] (ATCC19606, glucose-MOPS minimal medium, read-out: MIC, Minimal medium); > 200 µM in assay [9]. For the same compound, the maximal effect (Emax) in assay [4] was 47 to 51%; in assay [5] (read-out: Emax = percentage cell death (converted)), 58%; in assay [7], 38 to 45%; in assay [8] (Homo sapiens, HepG2, Alamar Blue, 72-hour treatment), 71 to 77%. Besides, the IC50 is 37 ± 6.28 µM in assay [5] and 4.22 ± 0.57 µM in [8] (Homo sapiens, HepG2, Alamar Blue, 72-hour treatment (Table 6)). The “sensitivity of the cell line to the compound, in words” value in assay [8] (HepG2) is given as “sensitive”.
